Measurements as given in patent US20240245806A1, “TREATMENT OF NEURODEGENERATIVE DISEASE USING CSA- AND INDY-TYPE COMPOUNDS” (BROWN UNIVERSITY, priority 2021, published 2024).
“Also recorded” adds a separate entry of the source.

Columns and labels:
[1] = tested on: zebrafish larvae; assay: Acute exposure of 5 dpf zebrafish larvae to modulators of calcineurin signaling, automated analysis of behavior; type: in vivo, Danio rerio; details: vs DMSO
Description: Zebrafish larvae were treated at 5 dpf with various modulators of calcineurin signaling, starting 3 hours before imaging. The larvae were then imaged for a total of 3 hours using a behavioral assay with various visual and acoustic stimuli (FIG. 6). The behavioral assay started with a 1-hour period without stimuli, followed by 80 minutes with visual stimuli, 10 minutes without visual or acoustic stimuli, and 30 minutes with acoustic stimuli. Values of activity (% move) and position (% up) were averaged in individual larvae during 10-minute periods, for a total of 18 periods. These values were subsequently averaged between larvae in the same treatment group. We examined a total of 10 treatment groups. For clarity, only 3 treatment groups were graphed (FIG. 6), but all 10 treatment groups were analyzed in detail as shown in subsequent figures. […] The assay provides quantitative information on activity, visually-guided behaviors and acoustic startle responses.
To determine if larval zebrafish behavior is affected by modulation of calcineurin signaling, we imaged 5 day-old larvae in the following 10 treatment groups: 10 μM cyclosporine A (CsA), 1 μM tacrolimus (FK506), 5 or 10 μM proINDY, a combination of CsA+5 or 10 μM proINDY, or a combination of FK506+5 or 10 μM proINDY, DMSO as a vehicle control, and 1 μM rapamycin as a control for target specificity. Rapamycin and FK506 are both macrolide immunosuppressants with similar structures, however, rapamycin affects Target of Rapamycin (TOR) signaling instead of calcineurin signaling. Vellanki et al., Front Mol Biosci 7, 588913 (2020). The concentrations of CsA, FK506 and rapamycin were selected based on prior studies in zebrafish embryos and larvae. Clift et al., Behav Brain Res 282, 117-124 (2015). The two concentrations of proINDY, a membrane-permeable form of INDY (inhibitor of DYRK), were selected based on studies in cell lines and Xenopus embryos. Ogawa et al., Nat Commun 1, 86 (2010).
The research project has been conducted in accordance with local and federal guidelines for ethical and humane use of animals and has been reviewed and approved by the Brown University Institutional Animal Care and Use Committee. Zebrafish (Danio rerio) embryos were collected and grown to larval stages as previously described. Thorn et al., Sci Rep 9, 13989 (2019). Adult wild-type zebrafish are maintained at Brown University as a genetically-diverse outbred strain in a mixed male and female population. Zebrafish embryos from 0-3 days post-fertilization (dpf) and zebrafish larvae from 3-5 dpf were maintained at 28.5° C. in 2 L culture trays with egg water, containing 60 mg/L sea salt (Instant Ocean) and 0.25 mg/L methylene blue in deionized water. Embryos and larvae were kept on a 12 hour light/12 hour dark cycle and were randomly assigned to different experimental groups prior to experimental manipulation. The sex of embryos and larvae cannot be determined at such early stages because zebrafish use elusive polygenic factors for sex determination, and both males and females have juvenile ovaries between 2.5 and 4 weeks of development. Zebrafish larvae were imaged at 5 dpf when the larvae display a range of locomotor behaviors and consume nutrients available in the yolk sac. Larvae are approximately 4 mm long at the 5 dpf stage.
Cyclosporine (cyclosporin A, Enzo Life Sciences), FK506 (tacrolimus, Enzo Life Sciences), rapamycin (Santa Cruz Biotechnology) and proINDY (Tocris Bioscience) were diluted in egg water from 1000× stocks dissolved in dimethyl sulfoxide (DMSO). DMSO (1 μl/ml DMSO) was added to the single treatments and the corresponding DMSO concentration was used as a vehicle control for all solutions. Larvae were exposed at 5 dpf to treatment solutions or DMSO for a total of 6 hours. Larvae were first treated in a Petri dish for 2 hours, transferred with the treatment solution to white 96-well ProxiPlates (PerkinElmer, 6006290) for 1 hour, and then imaged in the treatment solution for 3 hours. […]

[2] = tested on: transplant patients; details: all age groups above 65; cited from earlier work
[3] = tested on: zebrafish embryos and larvae; assay: Developmental exposure (2-3, 3-4 or 4-5 dpf) of zebrafish to modulators of calcineurin signaling, behavior imaged at 5 dpf; type: in vivo; details: for early activity (first hour): imaged 5 dpf
Description: Zebrafish. Adult wild type zebrafish (Danio rerio) are maintained at Brown University as a genetically-diverse outbred strain in a mixed male and female population. Zebrafish embryos were collected and grown to larval stages as described previously. Thorn et al., Sci Rep 9, 13989 (2019). Embryos from 0-3 days post-fertilization (dpf) and larvae from 3-5 dpf were kept on a 12 hour light/12 hour dark cycle at 28.5° C. in 2 L culture trays with egg water, containing 60 mg/L sea salt (Instant Ocean) and 0.25 mg/L methylene blue in deionized water. Zebrafish embryos and larvae were randomly assigned to different experimental groups prior to experimental manipulation. The sex of embryos and larvae cannot be determined at such early stages because zebrafish use elusive polygenic factors for sex determination, and both males and females have juvenile ovaries between 2.5 and 4 weeks of development. Liew et al., Brief Funct Genomics 13(2), 172-187 (2014). Zebrafish larvae were imaged at 5 dpf when they are approximately 4 mm long, display a range of locomotor behaviors and consume nutrients available in the yolk sac. Clift et al., Zebrafish 11(5), 455-461 (2014).
Pharmacological treatments. Zebrafish embryos and larvae were treated with 10 μM CsA (cyclosporin A, Enzo Life Sciences), 1 μM FK506 (tacrolimus, Enzo Life Sciences), 1 μM rapamycin (Santa Cruz Biotechnology), 5 μM proINDY (Tocris Bioscience) or co-treatments of either 10 μM CsA+5 μM proINDY or 1 μM FK506+5 μM proINDY. […] Clift et al., Behav Brain Res, 282, 117-124 (2015). […] Robinson et al., J Appl Toxicol 37(12), 1438-1447 (2017). […] All administered compounds were diluted in egg water from 1000× stocks dissolved in dimethyl sulfoxide (DMSO). The corresponding DMSO concentration (1 μl DMSO/ml egg water) was used as a vehicle control. Embryos and larvae were treated during one of the following developmental stages: 2-3, 3-4, or 4-5 dpf. The embryos and larvae were treated in 10 cm Petri dishes for 24 hours, rinsed three times with egg water, and then transferred to new Petri dishes with egg water. Larvae that were treated from 4-5 dpf were rinsed and kept in egg water for 3 hours prior to imaging, typically from 10 am to 1 pm. All treatment groups were imaged at 5 dpf in egg water. For imaging, larvae were transferred to white 96-well ProxiPlates (PerkinElmer, 6006290) and were imaged for 3 hours, typically from 1-4 pm (FIG. 12).
Imaging of zebrafish larvae. Zebrafish larvae were imaged in a 384-well imaging system as described previously. Thorn et al., Sci Rep 9, 13989 (2019). Briefly, four 96-well ProxiPlates were placed on a glass stage inside a temperature-controlled cabinet, set at 28.5° C. The upper shelf of the cabinet holds a high-resolution camera (18-megapixel Canon EOS Rebel T6 with an EF-S 55-250 mm f/4.0-5.6 IS zoom lens), connected to a continuous power supply (Canon ACK-E10 AC Adapter) and controlled by a laptop computer. Images are acquired using Canon's Remote Capture software (EOS Utility, version 3), which is included with the camera. Every 6 seconds, the camera acquires a high-resolution image of larvae in the microplates (FIG. 12). Two small speakers (OfficeTec USB Computer Speakers Compact 2.0 System) are located speaker-side down on the glass stage. Speakers were connected by USB to the laptop computer and set to maximum volume (85 dBA).
Behavioral assay. Larval behaviors were imaged for 3 hours, as described previously. Thorn et al., Sci Rep 9, 13989 (2019). […] The PowerPoint started with a light background for 60 minutes without visual or acoustic stimuli, followed by 80 minutes with visual stimuli, 10 minutes without stimuli, and 30 minutes with acoustic stimuli (FIG. 12). Larvae were not exposed to visual stimuli and acoustic stimuli at the same time. The visual stimuli consisted of a series of lines that moved upwards or downwards in the microplates, in a horizontal plane. […]

[4] = 5 dpf acute exposure, 10 μM CsA, 1 μM FK506, 1 μM rapamycin, proINDY

C=CC[C@@H]1/C=C(\C)C[C@H](C)C[C@H](OC)[C@H]2O[C@@](O)(C(=O)C(=O)N3CCCC[C@H]3C(=O)O[C@H](/C(C)=C/[C@@H]3CC[C@@H](O)[C@H](OC)C3)[C@H](C)[C@@H](O)CC1=O)[C@H](C)C[C@@H]2OC [FK506, tacrolimus]
optomotor response (OMR) ([1]; 5 dpf acute exposure): decreased optomotor responses | early activity (first hour of imaging) [1, 4]: increased early larval activity; also recorded: significant increase in both early and late activity | late activity (period 15) [1, 4]: increased activity; also recorded: significant increase in both early and late activity | activity ([1]; 5 dpf acute exposure, 10 μM CsA, 1 μM FK506, proINDY 5 or 10 μM): increased activity | excitability (acoustic stimuli at 1-second intervals) ([1]; 5 dpf acute): increase in excitability; also recorded: increased excitability | habituation to acoustic stimuli at 1-second intervals ([1]; 5 dpf acute): decreased habituation | optomotor response to red lines ([1]; 5 dpf acute, proINDY 5 μM): decreased optomotor responses | development of Alzheimer's disease in treated transplant patients [2]: rarely develops | startle responses (20-second interval) ([3]; all exposure groups, vs DMSO): decrease startle responses | OMR Blue ([3]; exposure 2-3 dpf): decrease in OMR Blue | OMR Green ([3]; exposure 2-3 dpf): decrease in OMR Green | OMR RGB ([3]; exposure 2-3 dpf): decrease in OMR RGB | behavioral profile ([3]; exposure 2-3 dpf): hyperactivity, low habituation, and low optomotor responses | habituation to acoustic stimuli (1 second interval) ([3]; exposure 2-3 dpf): reduced larval habituation | startle responses (20-second interval) ([3]; exposure 2-3 dpf): strongly reduced | early activity (first hour) ([3]; exposure 2-3 dpf): hyperactivity | habituation to acoustic stimuli (1 second interval) ([3]; exposure 3-4 dpf): reduced larval habituation | late activity (period 15) ([3]; exposure 3-4 dpf): substantial increases in activity | startle responses (20-second interval) ([3]; exposure 3-4 dpf): reduced | early activity (first hour) ([3]; exposure 3-4 dpf): hyperactivity | OMR Fast Red ([3]; exposure 4-5 dpf): decrease in OMR Fast Red | OMR Green ([3]; exposure 4-5 dpf): decrease in OMR Green | excitability ([3]; exposure 4-5 dpf): increases in excitability | habituation to acoustic stimuli (1 second interval) ([3]; exposure 4-5 dpf): increased larval habituation | late activity (period 15) ([3]; exposure 4-5 dpf): substantial increases in activity
